# Reference: patent US6875760B2 (Novo Nordisk A/S, priority 1999, dated 2005)
# Molecular target: T1, human glucagon receptor (Homo sapiens, UniProt P47871)
# T1 construct: expressed in transfected cells; host or cells: BHK (baby hamster kidney) cells
# Test: Glucagon Binding Assay (III)
# Conditions: BHK cell membranes, WGA SPA beads, 125I-glucagon; read-out: Glu Bd Assay (III) IC50
# Outline: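 Membranes from BHK cells transfected with the human receptor, prepared at 4 °C, were used in a WGA-bead scintillation proximity binding format. Plates were shaken for 4 hours, left to settle 8–48 hours and then counted. Non-specific binding was defined with 500 nM glucagon.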
# T1 sequence (P47871 26-477): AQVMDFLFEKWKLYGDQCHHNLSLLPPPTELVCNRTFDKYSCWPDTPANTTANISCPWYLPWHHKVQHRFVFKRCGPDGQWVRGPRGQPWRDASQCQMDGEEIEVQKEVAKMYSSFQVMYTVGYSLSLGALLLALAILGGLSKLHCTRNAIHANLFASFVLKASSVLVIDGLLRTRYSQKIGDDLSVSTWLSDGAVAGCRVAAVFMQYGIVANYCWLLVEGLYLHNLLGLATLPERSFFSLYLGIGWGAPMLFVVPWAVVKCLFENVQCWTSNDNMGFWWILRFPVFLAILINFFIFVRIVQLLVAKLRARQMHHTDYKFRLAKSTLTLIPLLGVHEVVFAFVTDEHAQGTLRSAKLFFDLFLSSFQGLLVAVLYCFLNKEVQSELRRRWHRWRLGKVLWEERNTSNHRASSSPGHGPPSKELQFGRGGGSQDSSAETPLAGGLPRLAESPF
row,SMILES,IC50
1,"CSc1ccc(NC(=O)N(Cc2ccc(C(=O)NCCC(=O)O)cc2)C2CCC(C(C)(C)C)CC2)cc1 (stereo not shown) [Example 30, 3-{4-[1-(4-tert-Butylcyclohexyl)-3-(4-methylsulfanylphenyl)ureidomethyl]benzoyl}aminopropionic acid]",139 nM
2,"CCS(=O)(=O)c1cccc(NC(=O)N(Cc2ccc(C(=O)Nc3nn[nH]n3)cc2)c2ccc(OC(F)(F)F)cc2)c1 [Example 452, 4-[3-(3-Ethylsulfonylphenyl)-1-(4-trifluoromethoxyphenyl)ureidomethyl]-N-(2H-tetrazol-5-yl)benzamide]",1410 nM
3,"CN(c1ccccc1)S(=O)(=O)c1cccc(NC(=O)N(Cc2ccc(C(=O)Nc3nn[nH]n3)cc2)c2ccc(C3CCCCC3)cc2)c1 [Example 266, 4-{1-(4-Cyclohexylphenyl)-3-[3-(methylphenylsulfamoyl)phenyl]ureidomethyl}-N-(2H-tetrazol-5-yl)benzamide]",15 nM
4,"CC(C)Cc1ccc(C(=O)N(Cc2ccc(C(=O)NCCC(=O)O)cc2)c2ccc(C3CCCCC3)cc2)cc1 [Example 520, 3-(4-{[(4-Cyclohexylphenyl)-(4-isobutylbenzoyl)amino]methyl}benzoylamino)propionic acid]",1980 nM
5,"CC(C)(C)c1ccc(N(Cc2ccc(C(=O)Nc3nn[nH]n3)cc2)C(=O)Nc2cccc(Cl)c2)cc1 [Example 296, 4-[1-(4-tert-Butylphenyl)-3-(3-chlorophenyl)ureidomethyl]-N-(2H-tetrazol-5-yl)benzamide]",304 nM
6,"O=C(Nc1nn[nH]n1)c1ccc(CN(C(=O)Nc2cc(C(F)(F)F)cc(C(F)(F)F)c2)c2ccc(C3CCCCC3)cc2)cc1 [Example 271, 4-[3-(3,5-Bis-trifluoromethylphenyl)-1-(4-cyclohexylphenyl)ureidomethyl]-N-(2H-tetrazol-5-yl)benzamide]",9 nM
7,"CCCCNS(=O)(=O)c1ccc(NC(=O)N(Cc2ccc(C(=O)NCCC(=O)O)cc2)[C@H]2CC[C@H](C(C)(C)C)CC2)cc1 [Example 239, 3-{4-[1-(trans-4-tert-Butylcyclohexyl)-3-(4-butylsulfamoylphenyl)ureidomethyl]benzoylamino}propionic acid]",1890 nM
8,"O=C(O)CCNC(=O)c1ccc(CN(Cc2ccccc2Cl)C(=O)Nc2ccc(OC(F)(F)F)cc2)cc1 [Example 431, 3-{4-[1-(2-Chlorobenzyl)-3-(4-trifluoromethoxyphenyl)ureidomethyl]benzoylamino}propionic acid]",2910 nM
9,"O=C(Nc1nn[nH]n1)c1ccc(CN(C(=O)Nc2ccc(Cl)c(Cl)c2)c2ccc(C3=CCCCC3)cc2)cc1 [Example 325, 4-[1-(4-Cyclohex-1-enylphenyl)-3-(3,4-dichlorophenyl)ureidomethyl]-N-(2H-tetrazol-5-yl)benzamide]",25 nM
10,"CC1CCCC(N(Cc2ccc(C(=O)NCCC(=O)O)cc2)C(=O)Nc2ccc(Oc3ccccc3)cc2)C1 (stereo not shown) [Example 44, 3-{4-[1-(3-Methylcyclohexyl)-3-(4-phenoxyphenyl)ureidomethyl]benzoylamino}propionic acid]",819 nM
11,"O=C(Nc1nn[nH]n1)c1ccc(CN(C(=O)/C=C/c2cccc3ccccc23)c2ccc(C3CCCCC3)cc2)cc1 [Example 534, 4-{[(4-Cyclohexylphenyl)-(3-naphthalen-1-ylacryloyl)amino]methyl}-N-(2H-tetrazol-5-yl)benzamide]",282 nM
12,"CC(C)(C)C1CCC(N(Cc2ccc(C(=O)NCCC(=O)O)cc2)C(=O)Nc2ccccc2C(F)(F)F)CC1 (stereo not shown) [Example 25, 3-{4-[1-(4-tert-Butylcyclohexyl)-3-(2-trifluoromethylphenyl)ureidomethyl]benzoylamino}propionic acid]",935 nM
13,"CC(C)(C)C1CCC(N(Cc2ccc(C(=O)NCCC(=O)O)cc2)C(=O)Nc2ccc(C#N)c(C(F)(F)F)c2)CC1 (stereo not shown) [Example 70, 3-{4-[1-(4-tert-Butylcyclohexyl)-3-(4-cyano-3-trifluoromethylphenyl)ureidomethyl]benzoylamino}propionic acid]",168 nM
14,"O=C(Nc1nn[nH]n1)c1ccc(CN(C(=O)Nc2cc(Br)cc(C(F)(F)F)c2)c2ccc(C3=CCCCC3)cc2)cc1 [Example 269, 4-[3-(3-Bromo-5-trifluoromethylphenyl)-1-(4-cyclohex-1-enylphenyl)ureidomethyl]-N-(2H-tetrazol-5-yl)benzamide]",38 nM
15,"CC(C)(C)[C@H]1CC[C@H](N(Cc2ccc(C(=O)NCCC(=O)O)cc2)C(=O)Nc2ccc(Cl)cc2Cl)CC1 [Example 35, 3-{4-[1-(4-trans-tert-Butylcyclohexyl)-3-(2,4-dichlorophenyl)ureidomethyl]benzoylamino}propionic acid]",352 nM
16,"CC(=O)c1cccc(NC(=O)N(Cc2ccc(C(=O)Nc3nn[nH]n3)cc2)c2ccc(C3CCCCC3)cc2)c1 [Example 283, 4-[3-(3-Acetylphenyl)-1-(4-cyclohexylphenyl)ureidomethyl]-N-(2H-tetrazol-5-yl)benzamide]",57 nM
17,"CCCC1(CCC)CCC(N(Cc2ccc(C(=O)NCCC(=O)O)cc2)C(=O)Nc2ccc(OC(F)(F)F)cc2)CC1 [Example 88, 3-{4-[1-(4,4-Dipropylcyclohexyl)-3-(4-trifluoromethoxyphenyl)ureidomethyl]benzoylamino}propionic acid]",137 nM
18,"CC(C)(C)C1CCC(N(Cc2ccc(C(=O)NCCC(=O)O)cc2)C(=O)Oc2ccc(Br)cc2Br)CC1 (stereo not shown) [Example 404, 3-(4-{[(4-tert-Butylcyclohexyl)-(2,4-dibromophenoxycarbonyl)amino]methyl}benzoylamino)propionic acid]",346 nM
19,"CCCCOC(=O)c1ccc(NC(=O)N(CCc2ccc(Cl)cc2)Cc2ccc(C(=O)NCCC(=O)O)cc2)cc1 [Example 51, 4-{3-[4-(2-Carboxyethylcarbamoyl)benzyl]-3-[2-(4-chlorophenyl)ethyl]ureido}benzoic acid butyl ester]",721 nM

# More lines, in order of falling IC50, values ahead:
row,IC50,SMILES
1,2680 nM,"O=C(O)c1ccc2nc(NC(=O)N(Cc3ccc(C(=O)Nc4nn[nH]n4)cc3)c3ccc(C4CCCCC4)cc3)sc2c1 [Example 364, 2-{3-(4-Cyclohexylphenyl)-3-[4-(2H-tetrazol-5-ylcarbamoyl)benzyl]ureido}benzothiazole-6-carboxylic acid]"
2,1260 nM,"CC(C)(C)C1CCC(N(Cc2ccc(C(=O)Nc3nn[nH]n3)cc2)C(=O)C2=CCc3ccccc32)CC1 (stereo not shown) [Example 474, 3H-Indene-1-carboxylic acid (4-tert-butylcyclohexyl)-[4-(2H-tetrazol-5-ylcarbamoyl)benzyl]amide]"
3,960 nM,"CS(=O)(=O)c1cc(NC(=O)N(Cc2ccc(C(=O)Nc3nn[nH]n3)cc2)c2ccc(C3CCCCC3)cc2)cc(S(C)(=O)=O)c1 [Example 321, 4-[3-(3,5-Bis(methylsulfonyl)phenyl)-1-(4-cyclohexylphenyl)ureidomethyl]-N-(2H-tetrazol-5-yl)benzamide]"
4,684 nM,"CC(C)(C)c1ccc(N(Cc2ccc(C(=O)Nc3nn[nH]n3)cc2)C(=O)Nc2ccc3ncsc3c2)cc1 [Example 257, 4-[3-Benzothiazol-6-yl-1-(4-tert-butylphenyl)ureidomethyl]-N-(2H-tetrazol-5-yl)benzamide]"
5,660 nM,O=C(O)CCNC(=O)c1ccc(CN(CC(c2ccccc2)c2ccccc2)C(=O)Cc2cccc(OC(F)(F)F)c2)cc1 [Example 556]
6,552 nM,CC(C)(C)C1CCC(N(Cc2ccc(C(=O)Nc3nn[nH]n3)cc2)C(=O)/C=C/c2cccc3ccccc23)CC1 (stereo not shown) [Example 544]
7,505 nM,"O=C(O)CCNC(=O)c1ccc(CN(CC(c2ccccc2)c2ccccc2)C(=O)Nc2ccc(Oc3ccccc3)cc2)cc1 [Example 53, 3-{4-[1-(2,2-Diphenylethyl)-3-(4-phenoxyphenyl)ureidomethyl]benzoylamino}propionic acid]"
8,304 nM,"CC(Oc1ccc(Cl)cc1)C(=O)N(Cc1ccc(C(=O)Nc2nn[nH]n2)cc1)C1CCC(C(C)(C)C)CC1 (stereo not shown) [Example 542, 4-({(4-tert-Butylcyclohexyl)-[2-(4-chlorophenoxy)propionyl]amino}methyl)-N-(2H-tetrazol-5-yl)benzamide]"
9,255 nM,"C[S+]([O-])c1cccc(NC(=O)N(Cc2ccc(C(=O)Nc3nn[nH]n3)cc2)c2ccc(C3CCCCC3)cc2)c1 (stereo not shown) [Example 472, 4-[1-(4-Cyclohexylphenyl)-3-(3-methylsulfinylphenyl)ureidomethyl]-N-(2H-tetrazol-5-yl)benzamide]"
10,184 nM,"CCCCC(CC)CN(Cc1ccc(C(=O)NCCC(=O)O)cc1)C(=O)Nc1ccc(Oc2ccccc2)cc1 (stereo not shown) [Example 14, 3-{4-[1-(2-Ethylhexyl)-3-(4-phenoxyphenyl)ureidomethyl]benzoylamino}propionic acid]"
11,145 nM,"CCCCOC(=O)c1ccc(NC(=O)N(Cc2ccc(C(=O)NCCC(=O)O)cc2)CC(CC)CCCC)cc1 (stereo not shown) [Example 37, 4-[3-[4-(2-Carboxyethylcarbamoyl)benzyl]-3-(2-ethylhexyl)ureido]benzoic acid butyl ester]"
12,106 nM,"CCCCc1ccc(N(Cc2ccc(C(=O)Nc3nn[nH]n3)cc2)C(=O)Nc2ccc(OC(F)(F)F)cc2)cc1 [Example 292, 4-[1-(4-Butylphenyl)-3-(4-trifluoromethoxyphenyl)ureidomethyl]-N-(2H-tetrazol-5-yl)benzamide]"
13,98 nM,"CC(C)(C)C1CCC(N(Cc2ccc(C(=O)Nc3nn[nH]n3)cc2)C(=O)c2cc(-c3ccc(Cl)cc3)cs2)CC1 (stereo not shown) [Example 564, 4-(4-Chlorophenyl)thiophene-2-carboxylic acid (4-tert-butylcyclohexyl)-[4-(2H-tetrazol-5-ylcarbamoyl)benzyl]amide]"
14,90 nM,"CCCCc1ccc(N(Cc2ccc(C(=O)NCCC(=O)O)cc2)C(=O)Nc2ccc(OC(F)(F)F)cc2)cc1 [Example 372, 3-{4-[1-(4-Butylphenyl)-3-(4-trifluoromethoxyphenyl)ureidomethyl]benzoylamino}propionic acid]"
15,61 nM,"CC(C)(C)C1CCC(N(Cc2ccc(C(=O)NCCC(=O)O)cc2)C(=O)Nc2ccc(Cl)c(C(F)(F)F)c2)CC1 (stereo not shown) [Example 74, 3-{4-[1-(4-tert-Butylcyclohexyl)-3-(4-chloro-3-trifluoromethylphenyl)ureidomethyl]benzoylamino}propionic acid]"
